Assay results: publication PMC10508830 (Antiviral research, 2023)
Where two headings read alike, the source gives them in different places.

Columns and labels:
[1] = tested on: A/Illinois/08/2018 A(H1N1)pdm09; assay: microbe, parasite or virus in culture; assay type: cell-based, influenza A(H1N1)pdm09 virus; conditions: Influenza A virus, H1N1, read-out: Mean EC50 ± SD
[2] = tested on: A/Louisiana/50/2017 A(H3N2); assay: microbe, parasite or virus in culture; assay type: cell-based; conditions: Influenza A virus, H3N2, read-out: Mean EC50 ± SD
[3] = tested on: A/bald eagle/Florida/22-006544-004/2022; assay: microbe, parasite or virus in culture; assay type: cell-based, influenza A(H5N1) virus; conditions: Influenza A virus, read-out: Mean EC50 ± SD
[4] = tested on: A/black vulture/Florida/22-012331-001/2022; assay: microbe, parasite or virus in culture; assay type: cell-based, influenza A(H5N1) virus; conditions: Influenza A virus, read-out: Mean EC50 ± SD
[5] = tested on: A/fox/Wisconsin/22-014746-030/2022; assay: microbe, parasite or virus in culture; assay type: cell-based, influenza A(H5N1) virus; conditions: Influenza A virus, read-out: Mean EC50 ± SD
[6] = tested on: A/Illinois/08/2018 A(H1N1)pdm09; assay type: cell-based, influenza A(H1N1)pdm09 virus; conditions: read-out: Mean EC50 ± SD
[7] = biological target: NA of A/Illinois/45/2019 A(H1N1)pdm09 (Influenza A virus, UniProt A0A0X9QTS2); assay type: biochemical; conditions: read-out: Mean IC50 ± SD
[8] = biological target: NA of A/bald eagle/Florida/22-006544-004/2022 (Influenza A virus, UniProt Q9Q0U7); assay type: biochemical; conditions: read-out: Mean IC50 ± SD
[9] = biological target: NA of A/turkey/Iowa/22-012098-001/2022 (Influenza A virus, UniProt Q9Q0U7); assay type: biochemical; conditions: read-out: Mean IC50 ± SD
[10] = biological target: NA of A/black vulture/Maryland/22-012407-001/2022 (Influenza A virus (H5N1), UniProt Q9Q0U7); assay type: biochemical; conditions: read-out: Mean IC50 ± SD
[11] = biological target: NA of A/Cooper's hawk/Minnesota/22-012931-001/2022 (Influenza A virus, UniProt Q9Q0U7); assay type: biochemical, influenza A(H5N1) virus; conditions: read-out: Mean IC50 ± SD
[12] = biological target: NA of A/red-shouldered hawk/Minnesota/22-012000-004/2022 (Influenza A virus, UniProt Q9Q0U7); assay type: biochemical; conditions: read-out: Mean IC50 ± SD
[13] = biological target: NA of A/fox/Wisconsin/22-013774-002/2022 (Influenza A virus, UniProt Q9Q0U7); assay type: biochemical; conditions: read-out: Mean IC50 ± SD
[14] = biological target: NA of A/Canada goose/Wyoming/22-011671-001/2022 (Influenza A virus, UniProt Q9Q0U7); assay type: biochemical, influenza A(H5N1) virus; conditions: read-out: Mean IC50 ± SD
[15] = biological target: NA of A/fox/Michigan/22-014536-004/2022 (del50-70) (Influenza A virus, UniProt Q9Q0U7); assay type: biochemical, influenza A(H5N1) virus; conditions: read-out: Mean IC50 ± SD
[16] = biological target: NA of A/black vulture/Florida/22-012333-001/2022 (N/S295, T/N438, mixed population) (Influenza A virus (H5N1), UniProt Q9Q0U7); assay type: biochemical; conditions: read-out: Mean IC50 ± SD

Compound	EC50 [1]	EC50 [2]	EC50 [3]	EC50 [4]	EC50 [5]	EC50 [6]	IC50 [7]	IC50 [8]	IC50 [9]	IC50 [10]	IC50 [11]	IC50 [12]	IC50 [13]	IC50 [14]	IC50 [15]	IC50 [16]
O=C1c2c(O)c(=O)ccn2N([C@@H]2c3ccccc3SCc3c2ccc(F)c3F)[C@@H]2COCCN12 [Baloxavir, baloxavir acid]	1.65 ± 0.44 nM	1.04 ± 0.43 nM	0.41 nM	0.44 nM	0.32 nM	1.12 ± 0.32 nM										
oseltamivir carboxylate							0.17 ± 0.03 nM									
peramivir							0.06 ± 0.01 nM	0.08 nM	0.1 nM	0.1 nM	0.1 nM	0.09 nM	0.09 nM	0.08 nM	0.1 nM	0.55 nM
